The target of one series is mTOR (Homo sapiens, UniProt P42345). The series can be described thus: mTOR HTR-FRET Assay. Format: biochemical. On the procedure:
The following is an example of an assay that can be used to determine the mTOR inhibitory activity of a test compound. Reagents are prepared as follows:
“Simple TOR buffer” (used to dilute high glycerol TOR fraction): 10 mM Tris pH 7.4, 10 mM NaCl, 0.1% Tween-20, 1 mM DTT (from 1M stock frozen at −20° C. just prior to use). For convenience a large quantity of “Simple TOR buffer” w/o DTT can be stored at 4° C. It can be brought to room temperature and DTT added just prior to dilution of TOR fraction.
5XKB/5XMn/5×ATP solution (used to dilute substrate GST-p70S6kin 81 a.a. just prior to use) (40 ml screen quantity shown):
Enzyme solution: Dilute TOR fraction 1:14 in “Simple TOR Buffer”. For current lot that is 640 μg/ml TOR fraction diluted 14× to yield 45.7 μg/ml TOR in buffer (i.e. 7.85 ml TOR pooled fraction+102.1 ml Simple TOR buffer=110 ml 14× diluted TOR fraction). Each Enzyme Lot must be QC'd prior to assay.
Substrate solution: This may be prepared just prior to assay if preferred. Dilute 5.3 mg/ml GST-p70S6kinase fragment stock to 3.5 μg/ml (97 nM) working stock in 5XKB/5XMn/5×ATP solution (i.e. 26.41 μL (5.3 mg/ml) GST-p70S6+40 ml 5XKB/5XMn/5×ATP=40 ml 3.5 μg/ml (97 nM)).
Assay Buffer (for dilution of Antibodies used in Antibody Detection Reagent):
Antibody Detection Reagent (this reagent should be made just prior to addition to Assay Plates):
Using PlateTrak program (Screen) or Matrix Pipettor (SAR), 19.5 μL of diluted TOR fraction is added to assay plate in all test, reference or positive control wells. 19.5 μL of “Simple TOR buffer” is added to all negative control wells. If treating multiple plates with the same compounds, can increase volume of enzyme to multiples of 19.5 μL in a tall 384 well polypropylene plate.
Using EP3, 0.5 μl of test, reference or control DMSO is added to each well with mixing. Plates are incubated for 30 minutes at room temperature.
Using PlateTrak program (Screen) or Matrix Pipettor (SAR) 5 μL of 5XKB/5XMn/5×ATP/5× substrate solution is added to each well of the assay plate to start the reaction. The solutions are mixed well and incubated for 2 hours at room temperature.
Using PlateTrak program (Screen) or Matrix Pipettor (SAR) 5 μL of 60 mM EDTA is added to stop the reaction. The solutions are mixed well and allowed to sit for 15-20 minutes before the next step.
Using PlateTrak program (Screen) or Matrix Pipettor (SAR) 10 μl of Antibody Detection Reagent is added. The solutions are mixes well and incubated for 5 hours to O/N to allow antibodies to form complexes with phosphorylated substrate.
Plates are read on AnalystHT using protocol Multi-Method protocol.

The target in the next series is T1, IKK-2 (Homo sapiens, UniProt O14920, S177E/S181E).
T1 sequence (O14920 1-756 S177E/S181E): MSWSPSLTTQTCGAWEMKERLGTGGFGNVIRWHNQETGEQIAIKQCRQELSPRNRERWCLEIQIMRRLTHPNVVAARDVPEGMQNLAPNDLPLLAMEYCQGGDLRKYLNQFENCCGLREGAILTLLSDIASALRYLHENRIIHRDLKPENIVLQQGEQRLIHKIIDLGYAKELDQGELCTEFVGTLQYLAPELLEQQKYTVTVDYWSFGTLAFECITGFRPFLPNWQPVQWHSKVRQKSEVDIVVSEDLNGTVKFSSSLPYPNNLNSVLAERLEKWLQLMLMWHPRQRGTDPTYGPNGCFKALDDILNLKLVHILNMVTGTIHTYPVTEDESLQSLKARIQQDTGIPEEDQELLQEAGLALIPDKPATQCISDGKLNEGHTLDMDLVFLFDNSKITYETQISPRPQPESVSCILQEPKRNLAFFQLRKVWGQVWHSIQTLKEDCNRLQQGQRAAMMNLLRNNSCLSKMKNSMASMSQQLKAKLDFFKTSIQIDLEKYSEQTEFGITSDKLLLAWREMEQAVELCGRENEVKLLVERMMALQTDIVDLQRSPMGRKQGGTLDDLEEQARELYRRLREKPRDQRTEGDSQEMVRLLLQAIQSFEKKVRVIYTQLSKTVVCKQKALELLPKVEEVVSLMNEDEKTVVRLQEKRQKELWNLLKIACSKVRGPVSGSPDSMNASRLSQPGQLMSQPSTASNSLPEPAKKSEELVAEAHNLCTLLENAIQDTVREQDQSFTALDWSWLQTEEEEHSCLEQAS
The series can be described thus: IKK-2 screening assay (IKK2EE 33P Assay / IKK2EE NEMO HTRF Assay). Format: biochemical. As to the method: The following is an example of an assay that can be used to determine the IKK2EE inhibitory activity of a test compound.
A reaction buffer (pH 7.8) is prepared containing HEPES (20 mM), MgCl2 (10 mM), EDTA (0.1 mM), DTT (1 mM) and Triton X-100 (0.004%). IKK2EE (0.75 μg/ml is used. GST-IKBα (50 μg/ml) is used as substrate. Adenosine 5′-triphosphate (1.5 μM with ^33P-ATP 5 nCi/μl) is used. Reactions are stopped with trichloroacetic acid (6.25%).
Appropriate amounts of test compounds or controls in 100% DMSO are added to the assay plate. A peptide-substrate solution (PSS) is prepared by adding peptide stock to an appropriate volume of buffer (peptide concentration in the PSS will be about 100 μg/ml). An enzyme-peptide solution (EPS) is prepared by adding enzyme stock to an appropriate volume of PSS (the enzyme concentration in the EPS will be about 1 μg/ml). An ATP solution is prepared by adding ATP stock to an appropriate volume of buffer (the ATP concentration will be 15 μM).
85 μl of EPS is added to the assay wells (or PSS to positive control wells) of 96 well polypropylene plates. The ATP solution is then completed by adding ^33P-ATP (to a final concentration of 50 μCi/ml).
The reaction is initiated by adding 10 μl ATP solution to each well. Plates are shaken from about 12 seconds and allowed to incubate at room temperature for 1 hours. 100 μl of trichloroacetic acid solution (12.5%) is added to stop the reaction and the plates are incubated at room temperature for at least 10 minutes. The assay plates are harvested onto a Millipore Multiscreen harvest Plate FC using an appropriate harvester and the harvest plates are washed with 1×PBS solution for about 10 seconds (continuous flow). Harvest plates are allowed to dry thoroughly and the bottoms of the plates are sealed. 20-50 μl of Microscint20 is added to each well, tops are sealed and plates are read using an appropriate scintillation counter.
A reaction buffer (pH 7.6) is prepared containing HEPES (20 mM), MgCl2 (10 mM), EDTA (0.05 mM), DTT (1 mM) and Triton X-100 (0.004%). IKK2EE-NEMO (0.7 μg/ml is used. GST-IKBα (0.5 μg/ml) is used as substrate. Adenosine 5′-triphosphate (1.5 μM) is used. Detection reagents used are mouse anti-P-IKBα (30 ng/ml), Eu anti-mouse (300 ng/ml) and Cy5 anti-GST (11.5 μg/ml). Reactions are stopped with EDTA (20 mM).
An enzyme solution (ES) is prepared by adding enzyme stock to an appropriate volume of buffer (enzyme concentration in the ES will be about 1.7 ng/ml). A detection mixture (DM) is prepared by adding ATP (final conc. 3.75 μM), mouse anti-P-IKBα (final conc. 75 ng/ml), GST-IKBα (final conc. 1.26 μg/ml), Eu anti-mouse in buffer (final conc. 750 ng/ml).
5 μl of compound (solvated in 10% DMSO) is added to assay wells (or 10% DMSO to control wells) of low binding reaction plates. […] ES is added to assay wells (or buffer to control wells) and the reaction is initiated by adding 10 μl DM to all wells. Plates are incubated at room temperature for 45 minutes. Stop mixture is prepared by adding EDTA (final conc. 70 mM) and Cy5 anti-GST (final conc. 40 μg/ml) to an appropriate volume of buffer. Stop mixture is added and plates are shaken for 20 seconds and incubated at room temperature for at least 3 hours (preferably in the dark). Plates are read on an Analyst HT using Multi-Method HTRF.
For orientation: In TR-FRET formats the signal depends on donor and acceptor labels being close together.

This note sets out measurements from patent publication US7968556B2, “Heteroaryl compounds, compositions thereof, and methods of treatment therewith” (Signal Pharmaceuticals, LLC, priority 2006, dated 2011).

In general, IC50 refers to the concentration at which inhibition is half-maximal. A higher IC50 goes with lower potency. By melting point is commonly meant the temperature, or range, at which the solid turns liquid.

Compound `CN(C)C(=O)c1nc(-c2cccnc2)nc2c1[nH]c(=O)n2-c1ccccc1` [Compound 6, N,N-dimethyl-8-oxo-9-phenyl-2-(pyridin-3-yl)-8,9-dihydro-7H-purine-6-carboxamide] displayed a melting point of 250 to 252 °C. This compound came in with an IC50 against mTOR of more than 30 µM. Moreover, the IC50 on IKK-2 is more than 30 µM.
For `Cc1ccccc1-n1c(=O)[nH]c2c(C(N)=O)nc(-c3cccc(O)c3)nc21` [Compound 9, 2-(3-hydroxyphenyl)-8-oxo-9-o-tolyl-8,9-dihydro-7H-purine-6-carboxamide], the melting point was in the range of 366 to 367 °C. At mTOR, the IC50 was in the range of 5.1 to 10 µM. Also, the IC50 on IKK-2 was more than 30 µM.
Taken in the same sequence, the figures for `COc1ccccc1-n1c(=O)[nH]c2c(C(N)=O)nc(-c3cccc4[nH]ccc34)nc21` [Compound 10, 2-(1H-indol-4-yl)-9-(2-methoxyphenyl)-8-oxo-8,9-dihydro-7H-purine-6-carboxamide] were 312 to 313 °C, 5.1 to 10 µM and more than 30 µM.
The matching figures for `COc1ccccc1-n1c(=O)[nH]c2c(C(N)=O)nc(-c3ccc4cc[nH]c4c3)nc21` [Compound 11, 2-(1H-indol-6-yl)-9-(2-methoxyphenyl)-8-oxo-8,9-dihydro-7H-purine-6-carboxamide]: 203 to 204 °C, 10.1 to 20 µM and more than 30 µM.
The matching figures for `COc1ccc(-n2c(=O)[nH]c3c(C(N)=O)nc(-c4cccc(O)c4)nc32)cc1` [Compound 12, 2-(3-hydroxyphenyl)-9-(4-methoxyphenyl)-8-oxo-8,9-dihydro-7H-purine-6-carboxamide]: 386 to 388 °C, 0.1 to 5 µM and 20.1 to 30 µM.
For the compound `NC(=O)c1nc(-c2cccc(O)c2)nc2c1[nH]c(=O)n2-c1ccccc1Cl` [Compound 14, 9-(2-chlorophenyl)-2-(3-hydroxyphenyl)-8-oxo-8,9-dihydro-7H-purine-6-carboxamide], the melting point was in the range of 360 to 364 °C. In addition, at mTOR, the half-maximal inhibitory concentration (IC50) was in the range of 0.1 to 5 µM. The compound further returned an IC50 on IKK-2 of more than 30 µM.
The matching figures for `N#Cc1cccc(-c2nc(C(N)=O)c3[nH]c(=O)n(-c4ccccc4)c3n2)c1` [Compound 27, 2-(3-cyanophenyl)-8-oxo-9-phenyl-8,9-dihydro-7H-purine-6-carboxamide]: 328 to 330 °C, 10.1 to 20 µM and more than 30 µM.
The matching figures for `NC(=O)c1nc(-c2cccnc2)nc2c1ncn2-c1ccccc1` [Compound 35, 9-phenyl-2-(pyridin-3-yl)-9H-purine-6-carboxamide]: 298 to 299 °C, 20.1 to 30 µM and 5.1 to 10 µM.
The matching figures for `NC(=O)c1nc(-c2cccnc2)nc2c1NC(=O)CN2c1ccccc1` [Compound 36, 6-oxo-8-phenyl-2-(pyridin-3-yl)-5,6,7,8-tetrahydropteridine-4-carboxamide]: 294 to 296 °C, more than 30 µM and more than 30 µM.
For the compound `NC(=O)c1nc(-c2ccncc2)nc2c1NC(=O)CN2c1ccccc1` [Compound 37, 6-oxo-8-phenyl-2-(pyridin-4-yl)-5,6,7,8-tetrahydropteridine-4-carboxamide], the melting point lay within 298 to 304 °C. Besides, at mTOR, the IC50 lay in the range of 10.1 to 20 µM. This compound also registered an IC50 against IKK-2 of more than 30 µM.
